Source: paper PMC8207694, “Nucleoside transporter-guided cytarabine-conjugated liposomes for intracellular methotrexate delivery and cooperative choriocarcinoma therapy” (Journal of Nanobiotechnology, 2021)

How the values were obtained:
JEG-3 cells [1] = experiment: In vitro cytotoxicity, MTT assay; type: cell-based; settings: Homo sapiens; JEG-3, 48 h, MTX-equivalent
Protocol: (§1) The cytotoxicities of MTX formulations were assessed via MTT assay. The groups were as follows: MTX solution (free MTX), MTX plus DSPE-PEG2k-Cy (abbreviated as MTX + Cy-lipid, the molar ratio of Cy-lipid to MTX was about 1:5.0), Lipo@MTX, and Cy-Lipo@MTX. JEG-3 cells or Pricell-0051 cells were added to 96-well plates (1 × 10^4 cells/well). After 24 h, cells were rinsed using PBS and treated with MTX formulations (0.001–30 μg MTX-equivalent/mL) for 48 h at 37 °C [40]. Viability was assessed by adding 20 μL of MTT (5 mg/mL) per well for 4 h. Next, the medium was removed and formazan crystals were dissolved via the addition of 150 μL of DMSO. A microplate reader (Varioskan Flash 3001, Thermo Fisher Scientific, USA) was then used to assess absorbance at 490 nm.

Pricell-0051 cells = experiment: In vitro cytotoxicity, MTT assay; type: cell-based; settings: Homo sapiens; Pricell-0051, 48 h, MTX-equivalent
Protocol: as §1

JEG-3 cells [2] = experiment: Cell cycle analysis (PI, flow cytometry); type: cell-based, human; settings: 1 μg/mL MTX-equivalent, 24 h; control 5.44 ± 0.97%
Protocol: For cell cycle analysis, JEG-3 cells (10^5/well) were added to 6-well plates for 24 h and were then treated with culture medium or MTX formulation-contained culture medium at an equivalent MTX concentration (1 μg/mL) for another 24 h. Then, JEG-3 cells were collected (1000 rpm, 5 min) and fixed using 70% ethanol for 8 h at 4℃. After resuspended in PI/RNase Staining buffer for 30 min, the cell cycle was determined with flow cytometry.

JEG-3 cells [3] = experiment: Apoptosis (FITC Annexin V, flow cytometry); type: cell-based, human; settings: 1 μg/mL MTX-equivalent, 24 h; control 10.39 ± 2.78%
Protocol: Apoptosis of JEG-3 cells was detected using the FITC Annexin V Apoptosis Detection Kit I. The cells (10^5/well) were seeded in 6-well plates. Following culture for 24 h, cells were treated with culture medium or MTX formulation-contained culture medium at an equivalent MTX concentration (1 μg/mL) for another 24 h. All other protocols were conducted based on the provided directions. The cells were analyzed by flow cytometry.

JEG-3 cells [4] = experiment: Mitochondrial transmembrane potential (JC-1, CLSM); type: cell-based, human; settings: 1 μg/mL MTX-equivalent, 24 h
Protocol: Mitochondrial transmembrane potential changes induced by various MTX formulations were evaluated by the JC-1 probe. Briefly, JEG-3 cells were added to the confocal dish. Following culture for 24 h, the cells were treated with free MTX, MTX + Cy-lipid, Lipo@MTX, or Cy-Lipo@MTX at an equivalent MTX concentration (1 μg/mL) for 24 h. JC-1 solution was exchanged for cold PBS following two JC-1 staining buffer washes, after which samples were assessed by CLSM at λex (488 nm)/λem (530 nm) for green fluorescence and λex (525 nm)/λem (590 nm) for red fluorescence.

JEG-3 cells [5] = experiment: Cell structure damage (bio-TEM); type: cell-based, human; settings: 1 μg/mL MTX-equivalent, 24 h
Protocol: Bio-TEM was applied for observing the cell structure and mitochondrial damage effect induced by MTX formulations. Briefly, JEG-3 cells were seeded in a 6 cm dish. After culturing for 24 h, the cells were treated with free MTX, MTX + Cy-lipid, Lipo@MTX, or Cy-Lipo@MTX at an equivalent MTX concentration (1 μg/mL) for another 24 h. Then, cells were digested, centrifuged, and fixed with 2.5% glutaraldehyde solution at 4 °C for more than 4 h. Finally, the bio-TEM observation was performed after sample preparation.

[6] = Biodistribution of MTX in tumor-bearing mice; type: in vivo; settings: 2 h post-treatment
Protocol: JEG-3 tumor-bearing mice were also used for organ distribution studies. Animal groups and dosage were consistent with pharmacokinetic studies. For bio-distribution studies of MTX formulations, three animals per group were sacrificed at 2, 8, and 24 h following treatment, and tumors, lungs, kidneys, hearts, livers, and spleens were isolated, weighed, and frozen. These tissues were then homogenized, spun down for 1 min, rested for 45 min, and combined with 100 µl of 10% trichloroacetic acid solution followed by vortexing for 1 min, adding 5 mL of acetonitrile, and incubating for 10 min. Samples were then spun down for 10 min at 6,000 rpm, and supernatants were isolated, combined with mobile phase, and passed through 0.22 µm membrane filters. Finally, HPLC was applied to estimate the drug content of samples.

JEG-3 tumor models [7] = experiment: In vivo antitumor study; design: species or system BALB/c nude mice
Protocol: (§2) When tumors were 50–100 mm^3 in size, nude mice were intravenously administrated with saline or MTX formulations (free MTX, MTX + Cy-lipid, Lipo@MTX, or Cy-Lipo@MTX, 5 mg MTX-equivalent/kg body weight, each group contained 6 mice) on day 6, 9, 12, 14, 18, and 21. On the 24th day, the mice were sacrificed, and the tumors, as well as the main organs, were excised, weighed, washed three times using saline, and subjected to fixation with 10% neutral buffered formalin. The tumor tissues were collected for H&E, TUNEL, and Ki67 staining. […] The survival of large tumor-bearing mice (300–500 mm^3 in size) was analyzed via Kaplan–Meier analysis (each group contained 5 mice).

JEG-3 tumor models [8] = experiment: Survival of large tumor-bearing mice (Kaplan-Meier); type: in vivo; settings: mice bearing larger tumors 300-500 mm^3; saline 26 days
Protocol: as §2

[9] = Safety: body weight and H&E of primary organs during antitumor study; type: in vivo, mice
Protocol: Healthy mice were administered the Lipo@MTX or Cy-Lipo@MTX dispersion via tail vein (10 mg MTX-equivalent/kg body weight every three days) for five times (each group contained 3 mice). Saline was injected as a control. After the administration, blood biochemical indices were measured. During the in vivo antitumor studies, the body weight and activity status of mice in each group were monitored for evaluating the side effects of the MTX formulations. After in vivo antitumor studies, the primary organs of each group were harvested for H&E staining.

[10] = design: method as in PMID 22510625; settings: liver damage, abdominal pain, gastrointestinal reactions, mucosal damage, bone marrow suppression; cited from earlier work
[11] = design: method as in PMID 28415433; settings: cited from earlier work

In the case of `CN(Cc1cnc2nc(N)nc(N)c2n1)c1ccc(C(=O)N[C@@H](CCC(=O)O)C(=O)O)cc1` [free MTX, Methotrexate], the IC50 (JEG-3 cells [1]) is reported as 19.6 µg/mL, the IC50 (Pricell-0051 cells) is reported as 32.2 µg/mL and the “JEG-3 cells arrested at the S phase” value (JEG-3 cells [2]) is reported as 11.59 ± 1.53%. The “apoptotic percentage of JEG-3 cells” value (JEG-3 cells [3]) was 18.03 ± 2.25%, the “effect on mitochondrial transmembrane potential (JC-1 red fluorescence)” value (JEG-3 cells [4]) was “a certain destructive effect on the MMP” and the “cell structure and mitochondria (bio-TEM)” value (JEG-3 cells [5]) was “cell structure was intact and the cell boundary was clearly visible”. For the same compound, the “main organs of MTX distribution” value [6] was “found in the kidneys and liver”, the tumor volume (JEG-3 tumor models [7]; day 24, 5 mg MTX-equivalent/kg i.v., six treatments, saline 2211.35 ± 236.66) was 1210.14 ± 285.62 mm^3 and the tumor weight (JEG-3 tumor models [7]; end of treatment cycle (day 24), saline 3.24 ± 0.60) was 2.35 ± 0.32 g. For the same compound, the median survival time (JEG-3 tumor models [8]) was 28 days, the “H&E-stained slices of major organs” value ([9]; end of treatment) was “many edematous glomeruli” and the “body weight change during treatment” value ([9]; tumor-bearing mice, 5 mg MTX-equivalent/kg) was “severe weight loss”. The “incidence rate of adverse reactions during systemic administration” value [10] was “more than 30%” and the “solubility in acidic versus neutral solutions” value [11] was “solubility of MTX in acidic solutions is greater than that in neutral solutions”.
